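Exposure lasted 48 hours, with cells grown in 96-well plates and compounds tested at five concentrations. TGI: total growth inhibition.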
What was measured:
Assay in all cases: inhibition of tumour cell growth, NCI panel, 48 h
HOP-92 NSCLC = tested on: HOP-92 NSCLC
U251 CNS = tested on: U251 CNS
LOX IMVI melanoma = tested on: LOX IMVI melanoma
SK-MEL-2 melanoma = tested on: SK-MEL-2 melanoma
HCT-15 colon = tested on: HCT-15 colon
SK-MEL-28 melanoma = tested on: SK-MEL-28 melanoma
NCI-H226 lung = tested on: NCI-H226 lung
COLO 205 colon = tested on: COLO 205 colon
CAKI-1 renal = tested on: CAKI-1 renal
SR leukemia = tested on: SR leukemia
OVCAR-8 ovarian = tested on: OVCAR-8 ovarian
HCT-116 colon = tested on: HCT-116 colon
SNB-75 CNS = tested on: SNB-75 CNS
OVCAR-5 ovarian = tested on: OVCAR-5 ovarian
A549 NSCLC = tested on: A549 NSCLC
UACC-62 melanoma = tested on: UACC-62 melanoma
NCI/ADR-RES ovarian = tested on: NCI/ADR-RES ovarian
MDA-MB-435 = tested on: MDA-MB-435
MDA-N = tested on: MDA-N
MCF7 breast = tested on: MCF7 breast
ACHN renal = tested on: ACHN renal
A498 renal = tested on: A498 renal
DU-145 prostate = tested on: DU-145 prostate
NCI-H522 lung = tested on: NCI-H522 lung
NCI-H23 lung = tested on: NCI-H23 lung
BT-549 breast = tested on: BT-549 breast
KM12 colon = tested on: KM12 colon
UACC-257 melanoma = tested on: UACC-257 melanoma
SK-OV-3 ovarian = tested on: SK-OV-3 ovarian
T-47D breast = tested on: T-47D breast
SF-295 CNS = tested on: SF-295 CNS
TK-10 renal = tested on: TK-10 renal
MALME-3M melanoma = tested on: MALME-3M melanoma
MOLT-4 leukemia = tested on: MOLT-4 leukemia
SN12C renal = tested on: SN12C renal
786-0 renal = tested on: 786-0 renal
MDA-MB-231 breast = tested on: MDA-MB-231 breast
M14 melanoma = tested on: M14 melanoma
IGROV1 ovarian = tested on: IGROV1 ovarian
CCRF-CEM leukemia = tested on: CCRF-CEM leukemia
HOP-62 NSCLC = tested on: HOP-62 NSCLC
SW-620 colon = tested on: SW-620 colon
SF-539 CNS = tested on: SF-539 CNS
K-562 leukemia = tested on: K-562 leukemia
SK-MEL-5 melanoma = tested on: SK-MEL-5 melanoma
NCI-H460 lung = tested on: NCI-H460 lung
HS 578T breast = tested on: HS 578T breast
EKVX NSCLC = tested on: EKVX NSCLC
OVCAR-4 ovarian = tested on: OVCAR-4 ovarian
SF-268 CNS = tested on: SF-268 CNS
UO-31 renal = tested on: UO-31 renal
HT29 colon = tested on: HT29 colon
OVCAR-3 ovarian = tested on: OVCAR-3 ovarian
HCC-2998 colon = tested on: HCC-2998 colon
PC-3 prostate = tested on: PC-3 prostate
RPMI-8226 leukemia = tested on: RPMI-8226 leukemia
SNB-19 CNS = tested on: SNB-19 CNS
RXF 393 renal = tested on: RXF 393 renal
HL-60(TB) leukemia = tested on: HL-60(TB) leukemia

Clc1sc(Cl)c2c1[C@H](Cl)C[C@@H]2Cl
TGI (HOP-92 NSCLC): 34.4 µM | TGI (U251 CNS): 48.2 µM | TGI (LOX IMVI melanoma): 25.2 µM | TGI (SK-MEL-2 melanoma): 65.9 µM | TGI (HCT-15 colon): 41.3 µM | TGI (SK-MEL-28 melanoma): 38.1 µM | TGI (NCI-H226 lung): 39.8 µM | TGI (COLO 205 colon): 62.2 µM | TGI (CAKI-1 renal): 44.5 µM | TGI (SR leukemia): > 100 µM | TGI (OVCAR-8 ovarian): 34.9 µM | TGI (HCT-116 colon): 20.9 µM | TGI (SNB-75 CNS): 64.7 µM | TGI (OVCAR-5 ovarian): 81.2 µM | TGI (A549 NSCLC): 86.2 µM | TGI (UACC-62 melanoma): 43.7 µM | TGI (NCI/ADR-RES ovarian): 37.4 µM | TGI (MDA-MB-435): 40.2 µM | TGI (MDA-N): 64.5 µM | TGI (MCF7 breast): > 100 µM | TGI (ACHN renal): 95 µM | TGI (A498 renal): > 100 µM | TGI (DU-145 prostate): 96.9 µM | TGI (NCI-H522 lung): 3.31 µM | TGI (NCI-H23 lung): 50 µM | TGI (BT-549 breast): 62.5 µM | TGI (KM12 colon): > 100 µM | TGI (UACC-257 melanoma): 92.9 µM | TGI (SK-OV-3 ovarian): > 100 µM | TGI (T-47D breast): 72.9 µM | TGI (SF-295 CNS): > 100 µM | TGI (TK-10 renal): 85.1 µM | TGI (MALME-3M melanoma): 59.6 µM | TGI (MOLT-4 leukemia): > 100 µM | TGI (SN12C renal): 50.6 µM | TGI (786-0 renal): 48.9 µM | TGI (MDA-MB-231 breast): 90.5 µM | TGI (M14 melanoma): 37.4 µM | TGI (IGROV1 ovarian): 38.6 µM | TGI (CCRF-CEM leukemia): > 100 µM | TGI (HOP-62 NSCLC): > 100 µM | TGI (SW-620 colon): 19.6 µM | TGI (SF-539 CNS): 42.4 µM | TGI (K-562 leukemia): > 100 µM | TGI (SK-MEL-5 melanoma): > 100 µM | TGI (NCI-H460 lung): > 100 µM | TGI (HS 578T breast): 44.1 µM | TGI (EKVX NSCLC): > 100 µM | TGI (OVCAR-4 ovarian): 52.7 µM | TGI (SF-268 CNS): 44.3 µM | TGI (UO-31 renal): 32.3 µM | TGI (HT29 colon): > 100 µM | TGI (OVCAR-3 ovarian): 70.9 µM | TGI (HCC-2998 colon): 33.4 µM

Cc1[nH]c(C)c(CN(C)C)c1CN(C)C
TGI (HOP-92 NSCLC): > 100 µM | TGI (U251 CNS): > 100 µM | TGI (LOX IMVI melanoma): > 100 µM | TGI (SK-MEL-2 melanoma): > 100 µM | TGI (HCT-15 colon): > 100 µM | TGI (SK-MEL-28 melanoma): > 100 µM | TGI (NCI-H226 lung): > 100 µM | TGI (COLO 205 colon): > 100 µM | TGI (CAKI-1 renal): > 100 µM | TGI (OVCAR-8 ovarian): > 100 µM | TGI (HCT-116 colon): > 100 µM | TGI (PC-3 prostate): > 100 µM | TGI (OVCAR-5 ovarian): > 100 µM | TGI (A549 NSCLC): > 100 µM | TGI (UACC-62 melanoma): > 100 µM | TGI (NCI/ADR-RES ovarian): > 100 µM | TGI (MDA-MB-435): > 100 µM | TGI (MDA-N): > 100 µM | TGI (MCF7 breast): > 100 µM | TGI (ACHN renal): > 100 µM | TGI (A498 renal): > 100 µM | TGI (DU-145 prostate): > 100 µM | TGI (NCI-H522 lung): > 100 µM | TGI (NCI-H23 lung): > 100 µM | TGI (BT-549 breast): > 100 µM | TGI (KM12 colon): > 100 µM | TGI (UACC-257 melanoma): > 100 µM | TGI (SK-OV-3 ovarian): > 100 µM | TGI (T-47D breast): > 100 µM | TGI (SF-295 CNS): > 100 µM | TGI (TK-10 renal): > 100 µM | TGI (MALME-3M melanoma): > 100 µM | TGI (SN12C renal): > 100 µM | TGI (786-0 renal): > 100 µM | TGI (MDA-MB-231 breast): > 100 µM | TGI (M14 melanoma): > 100 µM | TGI (IGROV1 ovarian): > 100 µM | TGI (RPMI-8226 leukemia): > 100 µM | TGI (SNB-19 CNS): > 100 µM | TGI (CCRF-CEM leukemia): > 100 µM | TGI (HOP-62 NSCLC): > 100 µM | TGI (SW-620 colon): > 100 µM | TGI (SF-539 CNS): > 100 µM | TGI (K-562 leukemia): > 100 µM | TGI (SK-MEL-5 melanoma): > 100 µM | TGI (NCI-H460 lung): > 100 µM | TGI (HS 578T breast): > 100 µM | TGI (EKVX NSCLC): > 100 µM | TGI (OVCAR-4 ovarian): > 100 µM | TGI (SF-268 CNS): > 100 µM | TGI (UO-31 renal): > 100 µM | TGI (HT29 colon): > 100 µM | TGI (OVCAR-3 ovarian): > 100 µM | TGI (HCC-2998 colon): > 100 µM | TGI (RXF 393 renal): > 100 µM

CC(=O)NS(=O)(=O)c1ccc(NCc2cccc3c(=O)c4ccc(Cl)cc4oc23)cc1
TGI (HOP-92 NSCLC): 69.7 µM | TGI (U251 CNS): > 100 µM | TGI (LOX IMVI melanoma): > 100 µM | TGI (SK-MEL-2 melanoma): > 93.6 µM | TGI (HCT-15 colon): > 55.4 µM | TGI (SK-MEL-28 melanoma): > 100 µM | TGI (NCI-H226 lung): > 100 µM | TGI (COLO 205 colon): > 100 µM | TGI (CAKI-1 renal): 69.6 µM | TGI (OVCAR-8 ovarian): > 49.1 µM | TGI (HCT-116 colon): > 100 µM | TGI (SNB-75 CNS): > 100 µM | TGI (PC-3 prostate): > 86.2 µM | TGI (OVCAR-5 ovarian): > 100 µM | TGI (A549 NSCLC): > 100 µM | TGI (UACC-62 melanoma): > 100 µM | TGI (NCI/ADR-RES ovarian): > 80.7 µM | TGI (MDA-MB-435): > 100 µM | TGI (MDA-N): > 100 µM | TGI (MCF7 breast): > 100 µM | TGI (ACHN renal): > 100 µM | TGI (A498 renal): > 100 µM | TGI (DU-145 prostate): > 100 µM | TGI (NCI-H522 lung): > 83.8 µM | TGI (NCI-H23 lung): > 71.6 µM | TGI (BT-549 breast): > 100 µM | TGI (KM12 colon): > 100 µM | TGI (UACC-257 melanoma): > 100 µM | TGI (SK-OV-3 ovarian): > 100 µM | TGI (T-47D breast): > 100 µM | TGI (SF-295 CNS): > 100 µM | TGI (TK-10 renal): > 100 µM | TGI (MALME-3M melanoma): > 93.5 µM | TGI (MOLT-4 leukemia): > 100 µM | TGI (SN12C renal): > 100 µM | TGI (786-0 renal): > 100 µM | TGI (MDA-MB-231 breast): > 100 µM | TGI (M14 melanoma): > 100 µM | TGI (IGROV1 ovarian): > 100 µM | TGI (RPMI-8226 leukemia): > 100 µM | TGI (SNB-19 CNS): > 100 µM | TGI (CCRF-CEM leukemia): > 86.7 µM | TGI (HOP-62 NSCLC): 96.8 µM | TGI (SW-620 colon): > 100 µM | TGI (SF-539 CNS): > 65.3 µM | TGI (K-562 leukemia): > 100 µM | TGI (SK-MEL-5 melanoma): > 100 µM | TGI (NCI-H460 lung): 51 µM | TGI (HS 578T breast): 97.7 µM | TGI (HL-60(TB) leukemia): 5.43 µM | TGI (EKVX NSCLC): > 100 µM | TGI (OVCAR-4 ovarian): > 100 µM | TGI (SF-268 CNS): > 100 µM | TGI (UO-31 renal): > 100 µM | TGI (HT29 colon): > 100 µM | TGI (OVCAR-3 ovarian): > 93.3 µM | TGI (HCC-2998 colon): > 100 µM | TGI (RXF 393 renal): 78.9 µM
